Assay results: paper PMC4941342, “Proteasomal degradation of sphingosine kinase 1 and inhibition of dihydroceramide desaturase by the sphingosine kinase inhibitors, SKi or ABC294640, induces growth arrest in androgen-independent LNCaP-AI prostate cancer cells” (Oncotarget, 2016)

Target: T1, dihydroceramide desaturase (Des1) (Homo sapiens, UniProt O15121)
T1 construct: gene DEGS1
T1 sequence (O15121 2-323): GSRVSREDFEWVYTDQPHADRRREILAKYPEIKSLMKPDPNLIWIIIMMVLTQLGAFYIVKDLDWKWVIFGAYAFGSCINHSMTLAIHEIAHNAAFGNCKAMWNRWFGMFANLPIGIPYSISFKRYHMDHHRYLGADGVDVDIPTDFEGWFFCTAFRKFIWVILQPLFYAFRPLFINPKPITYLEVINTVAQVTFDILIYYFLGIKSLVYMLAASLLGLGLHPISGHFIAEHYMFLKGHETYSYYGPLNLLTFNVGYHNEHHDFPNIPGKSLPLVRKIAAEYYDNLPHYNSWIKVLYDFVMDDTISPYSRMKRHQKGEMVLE
Experiment: Des1 activity in intact Jurkat cells labeled with DhCer-C6-NBD, HPLC with fluorescence detection
Format: cell-based

Compound | IC50
Oc1ccc(Nc2nc(-c3ccc(Cl)cc3)cs2)cc1 [SKi, 2-(p-hydroxyanilino)-4-(p-chlorophenyl)thiazole] | 0.63 to 0.69 µM
O=C(NCc1ccncc1)C12CC3CC(C1)CC(c1ccc(Cl)cc1)(C3)C2 [ABC294640, 3-(4-chlorophenyl)-adamantane-1-carboxylic acid (pyridin-4-ylmethyl)amide] | 10.2 µM
